Read-outs that look alike come from different tables or passages of the source.
How the values were obtained:
Assay type in all cases: in vivo
[1] = tested on: crabgrass, Large (large crabgrass, Digitaria sanguinalis); assay: Test C pre-/postemergence greenhouse herbicide test; details: Digitaria sanguinalis, Crabgrass, Large, read-out: Plant response rating; for pest or weed control at 31 g/ha: 31 g ai/ha; for pest or weed control at 62 g/ha: 62 g ai/ha; for pest or weed control at 125 g/ha: 125 g ai/ha; for pest or weed control at 250 g/ha: 250 g ai/ha
Summary of the method: (§1)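 Seeds sown in loam soil–sand blend were treated preemergence; plants at 2 to 18 cm (1- to 4-leaf stage) in peat-based medium were treated postemergence. Test chemicals were formulated in a non-phytotoxic solvent mixture with surfactant. After 13 to 15 d in greenhouse, injury was rated visually versus controls, 0 (no effect) to 100 (complete control).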

corn (Zea mays) = assay: as above; details: Zea mays, Corn, read-out: Plant response rating; for plant injury at 31 g/ha: 31 g ai/ha; for plant injury at 62 g/ha: 62 g ai/ha; for plant injury at 125 g/ha: 125 g ai/ha; for plant injury at 250 g/ha: 250 g ai/ha
Summary of the method: as §1

[2] = tested on: johnsongrass (Sorghum halepense); assay: as above; details: Sorghum halepense, Johnsongrass, read-out: Plant response rating; for pest or weed control at 31 g/ha: 31 g ai/ha; for pest or weed control at 62 g/ha: 62 g ai/ha; for pest or weed control at 125 g/ha: 125 g ai/ha; for pest or weed control at 250 g/ha: 250 g ai/ha
Summary of the method: as §1

[3] = tested on: wheat (winter wheat, Triticum aestivum); assay: as above; details: Triticum aestivum, Wheat, read-out: Plant response rating; for plant injury at 62 g/ha: 62 g ai/ha; for plant injury at 125 g/ha: 125 g ai/ha; for plant injury at 250 g/ha: 250 g ai/ha
Summary of the method: as §1

[4] = tested on: barnyardgrass (Echinochloa crus-galli); assay: as above; details: Barnyardgrass
Summary of the method: as §1

[5] = tested on: blackgrass (Alopecurus myosuroides); assay: as above; details: Alopecurus myosuroides, Blackgrass, read-out: Plant response rating; for pest or weed control at 31 g/ha: 31 g ai/ha; for pest or weed control at 62 g/ha: 62 g ai/ha; for pest or weed control at 125 g/ha: 125 g ai/ha; for pest or weed control at 250 g/ha: 250 g ai/ha
Summary of the method: as §1

soybean (Glycine max) = assay: as above; details: Glycine max, Soybean, read-out: Plant response rating; for plant injury at 62 g/ha: 62 g ai/ha; for plant injury at 125 g/ha: 125 g ai/ha; for plant injury at 250 g/ha: 250 g ai/ha
Summary of the method: as §1

[6] = tested on: crabgrass, Large (large crabgrass, Digitaria sanguinalis); assay: Test A pre-/postemergence greenhouse herbicide test; details: Digitaria sanguinalis, 240 h, 0 to 100 scale (0 no effect, 100 complete control), approx. 10 d, read-out: Plant response rating, Crabgrass, Large; for pest or weed control at 125 g/ha: 125 g ai/ha; for pest or weed control at 500 g/ha: 500 g ai/ha
Summary of the method: (§2)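 Greenhouse pre- and postemergence treatment in loam/sand soil, test chemicals in non-phytotoxic solvent with surfactant; postemergence plants 2–10 cm, one- to two-leaf stage. Visual injury rated after approximately 10 d versus untreated controls, 0 (no effect) to 100 (complete control).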

[7] = tested on: wheat (Triticum aestivum); assay: as above; details: Triticum aestivum, 240 h, 0 to 100 scale (0 no effect, 100 complete control), approx. 10 d, read-out: Plant response rating, Wheat; for plant injury at 125 g/ha: 125 g ai/ha; for plant injury at 500 g/ha: 500 g ai/ha
Summary of the method: as §2

[8] = tested on: pigweed (Amaranthus retroflexus); assay: as above; details: Amaranthus retroflexus, 240 h, 0 to 100 scale (0 no effect, 100 complete control), approx. 10 d, read-out: Plant response rating, Pigweed; for pest or weed control at 125 g/ha: 125 g ai/ha; for pest or weed control at 500 g/ha: 500 g ai/ha
Summary of the method: as §2

COc1cc(=O)n(-c2ccc(C(F)(F)F)cc2)nc1Cc1ccnc(C(F)(F)F)c1 [Compound 16, 5-methoxy-2-[4-(trifluoromethyl)phenyl]-6-[[2-(trifluoromethyl)-4-pyridinyl]methyl]-3(2H)-pyridazinone]
pest or weed control at 31 g/ha ([1]; post-emergence, Postemergence): 10% | pest or weed control at 62 g/ha ([1]; post-emergence, Postemergence): 25% | pest or weed control at 125 g/ha ([1]; post-emergence, Postemergence): 30% | pest or weed control at 250 g/ha ([1]; post-emergence, Postemergence): 35% | pest or weed control at 31 g/ha ([1]; pre-emergence, Preemergence): 98% | pest or weed control at 62 g/ha ([1]; pre-emergence, Preemergence): 98% | pest or weed control at 125 g/ha ([1]; pre-emergence, Preemergence): 100% | pest or weed control at 250 g/ha ([1]; pre-emergence, Preemergence): 100% | plant injury at 31 g/ha (corn (Zea mays); post-emergence, Postemergence): 20% | plant injury at 62 g/ha (corn (Zea mays); post-emergence, Postemergence): 40% | plant injury at 125 g/ha (corn (Zea mays); post-emergence, Postemergence): 40% | plant injury at 250 g/ha (corn (Zea mays); post-emergence, Postemergence): 55% | plant injury at 31 g/ha (corn (Zea mays); pre-emergence, Preemergence): 45% | plant injury at 62 g/ha (corn (Zea mays); pre-emergence, Preemergence): 60% | plant injury at 125 g/ha (corn (Zea mays); pre-emergence, Preemergence): 75% | plant injury at 250 g/ha (corn (Zea mays); pre-emergence, Preemergence): 75% | pest or weed control at 31 g/ha ([2]; post-emergence, Postemergence): 10% | pest or weed control at 62 g/ha ([2]; post-emergence, Postemergence): 10% | pest or weed control at 125 g/ha ([2]; post-emergence, Postemergence): 20% | pest or weed control at 250 g/ha ([2]; post-emergence, Postemergence): 35% | pest or weed control at 31 g/ha ([2]; pre-emergence, Preemergence): 60% | pest or weed control at 62 g/ha ([2]; pre-emergence, Preemergence): 75% | pest or weed control at 125 g/ha ([2]; pre-emergence, Preemergence): 85% | pest or weed control at 250 g/ha ([2]; pre-emergence, Preemergence): 98% | plant injury at 31 g/ha ([3]; post-emergence, Postemergence, 31 g ai/ha): 5% | plant injury at 62 g/ha ([3]; post-emergence, Postemergence): 5% | plant injury at 125 g/ha ([3]; post-emergence, Postemergence): 10% | plant injury at 250 g/ha ([3]; post-emergence, Postemergence): 10% | plant injury at 62 g/ha ([3]; pre-emergence, Preemergence): 25% | plant injury at 125 g/ha ([3]; pre-emergence, Preemergence): 45% | plant injury at 250 g/ha ([3]; pre-emergence, Preemergence): 50% | Plant response rating ([4]; Postemergence, 31 g ai/ha): 10 | Plant response rating ([4]; Postemergence, 62 g ai/ha): 10 | Plant response rating ([4]; Postemergence, 125 g ai/ha): 25 | Plant response rating ([4]; Postemergence, 250 g ai/ha): 35 | Plant response rating ([4]; Preemergence, 31 g ai/ha): 75 | Plant response rating ([4]; Preemergence, 62 g ai/ha): 80 | Plant response rating ([4]; Preemergence, 125 g ai/ha): 95 | Plant response rating ([4]; Preemergence, 250 g ai/ha): 100 | pest or weed control at 31 g/ha ([5]; post-emergence, Postemergence): 5% | pest or weed control at 62 g/ha ([5]; post-emergence, Postemergence): 5% | pest or weed control at 125 g/ha ([5]; post-emergence, Postemergence): 5% | pest or weed control at 250 g/ha ([5]; post-emergence, Postemergence): 10% | pest or weed control at 31 g/ha ([5]; pre-emergence, Preemergence): 40% | pest or weed control at 62 g/ha ([5]; pre-emergence, Preemergence): 50% | pest or weed control at 125 g/ha ([5]; pre-emergence, Preemergence): 60% | pest or weed control at 250 g/ha ([5]; pre-emergence, Preemergence): 90% | plant injury at 62 g/ha (soybean (Glycine max); post-emergence, Postemergence): 50% | plant injury at 125 g/ha (soybean (Glycine max); post-emergence, Postemergence): 55% | plant injury at 250 g/ha (soybean (Glycine max); post-emergence, Postemergence): 65% | plant injury at 62 g/ha (soybean (Glycine max); pre-emergence, Preemergence): 25% | plant injury at 125 g/ha (soybean (Glycine max); pre-emergence, Preemergence): 65% | plant injury at 250 g/ha (soybean (Glycine max); pre-emergence, Preemergence): 75% | pest or weed control at 125 g/ha ([6]; post-emergence, Postemergence): 90% | pest or weed control at 500 g/ha ([6]; post-emergence, Postemergence): 100% | pest or weed control at 125 g/ha ([6]; pre-emergence, Preemergence): 100% | pest or weed control at 500 g/ha ([6]; pre-emergence, Preemergence): 100% | plant injury at 125 g/ha ([7]; post-emergence, Postemergence): 60% | plant injury at 500 g/ha ([7]; post-emergence, Postemergence): 70% | plant injury at 125 g/ha ([7]; pre-emergence, Preemergence): 20% | plant injury at 500 g/ha ([7]; pre-emergence, Preemergence): 70% | pest or weed control at 125 g/ha ([8]; post-emergence, Postemergence): 100% | pest or weed control at 500 g/ha ([8]; post-emergence, Postemergence): 100% | pest or weed control at 125 g/ha ([8]; pre-emergence, Preemergence): 100% | pest or weed control at 500 g/ha ([8]; pre-emergence, Preemergence): 100%
